According to patent US8552000B2, “Therapeutic agent for senile dementia” (Dainippon Sumitomo Pharma Co., Ltd., priority 2003, dated 2013):

System: scopolamine-induced cognitive/memory dysfunction models
Assay: one step-through passive avoidance test, scopolamine-induced amnesia
Format: in vivo, Male Wistar rats
Description: Male Wistar rats (7 weeks old) were used. As a test medicament, (1R,2S,3R,4S)—N-|(1R,2R)-2-[4-(1,2-benzisothiazol-3-yl)-1-piperazinyl-methyl]-1-cyclohexylmethyl]-2,3-bicycl[2.2.1]heptanedicarboxylmide (Compound A) was suspended in 0.5% methyl cellulose (MC) solution. As an agent for inducing amnesia, scopolamine (manufactured by Wako Pure Chemical Industries, Ltd., product No. 198-07901), which is an acethylcoline receptor blocker, was dissolved in saline solution (manufactured by TERUMO CORPORATION). Compound A at a dose of 3 mg/kg or 30 mg/kg, or 0.5% MC as a control was orally administered to the animals one hour prior to the training step in the one step-through passive avoidance test, and then, scopolamine at a dose of 0.5 mg/kg or a saline solution as a control was subcutaneously administered to the animals 30 minutes prior to the training step. The volume of each solution to be administered was 5 ml/kg each.
The one step-through passive avoidance test in rats was carried out in the following manners with using an apparatus consisting of a light-dark box and an electric stimulator (manufactured by O'hara & Co., Ltd., product no. PA-2030A) as an experimental apparatus. Namely, on Day 1, after the medicament and the agent for inducing amnesia were administered, the rats were put into the light box of the experimental apparatus where the back of each rat was directed to the dark box. Then, 10 seconds later, a guillotine door set at the border between the dark box and the light box was opened. Due to the habits of the rats, once the rats entered into the dark box, the guillotine door was quickly closed. At three seconds after the entering into the dark box, an electroconvulsive shock (0.5 mA, for 3 seconds) was given to the rats. Again, the guillotine door was opened, and after the rats spontaneously returned to the light box, the animals were transferred into the home cage. The period between the time just after the guillotine door was opened and the time at which the rats entered into the dark box was measured as a step-through latency.
On Day 2 of the experiment, a test was carried out about 24 hours after the training. The procedures of the test were carried out in the same manner to the training step except that an electroconvulsive shock was not given. The step-through latency in the test was measured up to 300 seconds, and the step-through latency over 300 seconds was regarded as 300 seconds. FIG. 1 and FIG. 2 show the effects of Compound A on the scopolamine-induced cognitive/memory dysfunction models in the one step-through passive avoidance test when it was orally administered at a dosage of 3 mg/kg or 30 mg/kg. […] The number of the animals was 15 per group, and the data was expressed in mean±SEM.

Compound	step-through latency during the training (Compound A 3 mg/kg orally one hour prior to training, scopolamine 0.5 mg/kg s.c. 30 minutes prior, vs 0.5% MC+scopolamine)	step-through latency during the test (Compound A 30 mg/kg orally plus scopolamine 0.5 mg/kg s.c., test about 24 hours after training, vs 0.5% MC+scopolamine)	improving effect of scopolamine-induced cognitive/memory dysfunctions (overall finding of the passive avoidance test in rats, oral administration)	step-through latency during the training (scopolamine 0.5 mg/kg s.c. alone (with 0.5% MC), vs saline solution)	step-through latency during the test (scopolamine 0.5 mg/kg s.c. alone (with 0.5% MC), vs saline solution, about 24 hours after training)
O=C1[C@@H]2[C@@H]3CC[C@@H](C3)[C@@H]2C(=O)N1C[C@@H]1CCCC[C@H]1CN1CCN(c2nsc3ccccc23)CC1 [Compound A]	slightly shortened	significantly extended	exhibited an improving effect		
CN1[C@@H]2C[C@@H](OC(=O)[C@H](CO)c3ccccc3)C[C@H]1[C@@H]1O[C@@H]12 [scopolamine, reference compound]				did not affect	significantly shorter
